According to paper PMC7369637, “Inhibition of Resistance-Refractory P. falciparum Kinase PKG Delivers Prophylactic, Blood Stage, and Transmission-Blocking Antiplasmodial Activity” (Cell Chemical Biology, 2020):
Where two headings read alike, the source gives them in different places.

Experiments:
Pf Dd2-B2 ABS parasites = test: 72-h asexual blood stage (ABS) growth inhibition assay, Dd2-B2; format: cell-based, Plasmodium falciparum
Method: (§1) Synchronicity was achieved using three rounds of sorbitol treatment on early rings, spaced 48 h apart, followed by magnetic purification of segmented schizonts following the final sorbitol treatment. Parasites were highly synchronous to within a 3 h window of development. Assays were repeated on at least three independent occasions (each with technical duplicates) and statistical significance was assessed using Mann Whitney U tests.

Pf 3D7-A10 ABS parasites = test: 72-h ABS growth inhibition assay, 3D7-A10; format: cell-based; conditions: Plasmodium falciparum, 3D7, Line 3D7-A10 wild-type
Method: as §1, with “Parasites were highly synchronous to within a 3 h window of development.” left out

[1] = tested on: 3D7-A10 parasites (rings, trophozoites, schizonts); test: ABS stage-specific 8-h exposure assay on highly synchronized parasites; format: cell-based, Plasmodium falciparum; conditions: for IC50: 3D7-A10, 8 h exposure
Method: as §1

Pf ABS parasites = test: Light microscopy of ABS development; format: cell-based, Plasmodium falciparum; conditions: ring-stage parasites exposed to 350 nM (approximately 3 × IC50)
sel. Dd2-B2 TKL3T1268R = test: 72-h ABS assay, MMV030084-selected line; format: cell-based, Plasmodium falciparum; conditions: Plasmodium falciparum
Method: as §1
(§2) The resulting MMV030084-resistant parasites were cloned by limiting dilution ([Baker et al., 2017]) to obtain genetically homogenous cultures for further phenotyping and whole-genome sequencing. A second round of […]. […] Drug susceptibility of resistant lines was assessed using a 72 h ABS assay as described above, and a Mann Whitney U test was applied to assess statistically significant differences.

[2] = tested on: NF54 CDPK1T145M mutant line; test: ABS susceptibility, CDPK1 gatekeeper mutant line; format: cell-based; conditions: Plasmodium falciparum, NF54, read-out: Mean IC50
Method: as §1

Pf NF54 male gametes = test: Dual gamete formation assay, male gamete exflagellation; format: cell-based; conditions: Plasmodium falciparum
Method: Pf NF54 gametocytes were generated as reported elsewhere ([Delves et al., 2016]). Briefly, static cultures of unsynchronized asexual parasites were continuously maintained as above. Parasites were cultured at 1% ring-stage parasitemias and 4% (v/v) hematocrit prior to the induction of gametocytes. To prepare gametocytes, 75% of the media was replaced daily for 14 subsequent days without adding fresh RBCs. During this process the temperature was kept strictly constant, as the rate of exflagellation is highly temperature-dependent. Between days 1 and 4 after culture induction, the asexual parasitemias increased rapidly to a peak. By day 7, as the asexual population waned, early-stage gametocytes became observable. By day 8, gametocyte maturation had progressed, and by day 14 morphologically distinguishable, mature stage V male and female gametocytes were present. […] Control reactions contained DMSO or 20 μM methylene blue (as negative and positive controls, respectively). […] After imaging, the plate was incubated at 18°C for a further 24 h to allow female gametes to maximally express Pfs25, followed by fluorescence microscopy imaging using a 10× objective. Both time lapse images of exflagellation and fluorescence images of female gametes were automatically quantified using custom scripts in ICY BioImage Analysis ([Delves et al., 2016]).

[3] = target: T1, cGMP-dependent protein kinase (PKG) (PF3D7_1436600) (Plasmodium falciparum, UniProt Q8I719); test: Competitive chemoproteomics in Pf lysates (Kinobeads / bead-immobilized compound); format: binding; conditions: lysates exposed to 40 μM of the same compound vs vehicle
T1 construct: The beads were incubated at 4°C for 1 h with either 0.1 ml (0.3 mg) Pf blood stage extract; endogenous in cells; host or cells: P. falciparum asexual blood-stage parasites (trophozoite stage), saponin-freed and lysed
Method: Parasite cultures at the trophozoite stage were harvested, washed twice in RPMI 1640 medium (Gibco), and lysed by the addition of saponin to a final concentration of 0.1% for 5 min at room temperature. Free parasites were sedimented by centrifugation (3500 rpm for 10 min), washed three times with phosphate-buffered saline, and stored at −80°C. Parasites were resuspended in cell lysis buffer (50 mM tris-HCl (pH 7.5), 5% glycerol, 1.5 mM MgCl2, 1.5 mM NaCl, 1 mM Na3PO4, 25 mM sodium fluoride, 0.8% NP-40, EDTA-free protease inhibitor cocktail tablets (Roche Diagnostics), and 1 mM DTT) and disrupted by sonication (Sonics Vibra-Cell) using two 30-s cycles on ice at half-amplitude. […]
Kinobeads were prepared by immobilizing Bis-(III) indolyl-maleimide, purvalanol B, staurosporine and CZC8004, and the analogs of PD173955, sunitinib and vandetanib on NHS-activated Sepharose 4 beads (Amersham) ([Bantscheff et al., 2007]). […] 10 samples were measured in parallel (TMT 10-plex ([Werner et al., 2014])) to generate values for the affinity of the beads to the bound proteins (“depletion” values, 4 samples) and to generate IC50 values (6 samples) in a single experiment. Apparent dissociation constants were determined after accounting for protein depletion by the beads ([Bantscheff et al., 2011]). […]

[4] = tested on: Dd2-B2 and ed. Dd2-B2 TKL3KO parasites; test: In vitro selections for MMV030084 resistance; format: cell-based, Plasmodium falciparum; conditions: 1 × 10^9 Dd2-B2 TKL3KO parasites, 1,100 nM
Method: as §2

female gamete formation = conditions: ref Miguel-Blanco et al., 2017; cited from earlier work
in vitro = conditions: human

T1 sequence (Q8I719 whole entry): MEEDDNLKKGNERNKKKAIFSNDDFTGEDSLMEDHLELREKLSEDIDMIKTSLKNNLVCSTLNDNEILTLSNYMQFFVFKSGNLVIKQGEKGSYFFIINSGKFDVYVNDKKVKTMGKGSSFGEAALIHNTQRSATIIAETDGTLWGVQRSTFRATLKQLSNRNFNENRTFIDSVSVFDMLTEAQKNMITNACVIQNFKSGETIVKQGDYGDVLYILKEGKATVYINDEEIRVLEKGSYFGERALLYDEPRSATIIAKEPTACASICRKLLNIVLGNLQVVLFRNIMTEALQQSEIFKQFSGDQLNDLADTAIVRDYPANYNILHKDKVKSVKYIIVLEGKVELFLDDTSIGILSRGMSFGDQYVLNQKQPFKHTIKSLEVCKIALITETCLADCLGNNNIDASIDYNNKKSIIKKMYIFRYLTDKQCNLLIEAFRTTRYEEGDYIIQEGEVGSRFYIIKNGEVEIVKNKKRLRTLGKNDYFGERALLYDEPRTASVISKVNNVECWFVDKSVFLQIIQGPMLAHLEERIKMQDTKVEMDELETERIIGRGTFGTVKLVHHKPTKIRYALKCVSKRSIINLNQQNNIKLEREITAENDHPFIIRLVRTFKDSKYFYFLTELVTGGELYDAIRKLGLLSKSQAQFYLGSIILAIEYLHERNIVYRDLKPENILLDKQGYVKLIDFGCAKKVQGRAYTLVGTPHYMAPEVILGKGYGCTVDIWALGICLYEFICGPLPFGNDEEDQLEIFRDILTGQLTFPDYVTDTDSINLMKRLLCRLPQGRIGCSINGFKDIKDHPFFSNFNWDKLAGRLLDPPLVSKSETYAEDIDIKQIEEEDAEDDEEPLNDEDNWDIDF

For CC(C)(CN)c1nc(-c2ccc(Cl)c(O)c2)c(-c2ccncc2)[nH]1 [MMV030084], which IC50 (Pf Dd2-B2 ABS parasites; Plasmodium falciparum, DD2, 72 h, read-out: Mean IC50, 72 h ABS activity, Dd2-B2 wild-type, 72 h) is on record?
Its IC50 is 0.12 µM.

And the IC50 (Pf Dd2-B2 ABS parasites; read-out: Mean IC50, 72 h ABS activity, Dd2-B2 wild-type, 72 h)?
Its IC50 is 0.12 µM.

And the IC50 (Pf 3D7-A10 ABS parasites)?
The IC50 was 0.178 µM.

What about the IC50 ([1]; first shift of biphasic curve, read-out: Mean IC50, schizont biphasic shift 1) of the same compound?
The IC50 was 0.0956 µM.

And the IC50 ([1]; second shift of biphasic curve, read-out: Mean IC50, schizont activity shift 2)?
The IC50 was 3.93 µM.

What about the IC50 ([1]; read-out: Mean IC50, late ring stage activity) of the same compound?
Its IC50 is 5.87 µM.

And the “Survival at plateau phase of biphasic schizont curve” value ([1]; 3D7-A10 schizonts, 8 h exposure)?
The value was ~ 58%.

What about the IC50 ([1]; Plasmodium falciparum, 3D7, 8 h, early and late rings averaged, read-out: Average IC50, rings) of the same compound?
Its IC50 is 5.56 µM.

What about the IC50 ([1]; Plasmodium falciparum, 3D7, 8 h, early and late trophozoites averaged, read-out: Average IC50, trophozoites) of the same compound?
Its IC50 is 3.25 µM.

And the IC50 ([1]; Plasmodium falciparum, 3D7, 8 h, first shift of biphasic curve, read-out: Mean IC50, schizont biphasic shift 1)?
The IC50 was 0.096 µM.

And the IC50 ([1]; Plasmodium falciparum, 3D7, 8 h, second shift of biphasic curve, read-out: Mean IC50, schizont activity shift 2)?
Its IC50 is 3.93 µM.

What about the IC50 ([1]; Plasmodium falciparum, 3D7, 8 h, read-out: Mean IC50, early ring stage activity) of the same compound?
The IC50 was 5.25 µM.

What about the IC50 ([1]; Plasmodium falciparum, 3D7, 8 h, read-out: Mean IC50, early trophozoite activity) of the same compound?
Its IC50 is 3.21 µM.

What about the IC50 ([1]; Plasmodium falciparum, 3D7, 8 h, read-out: Mean IC50, late ring stage activity) of the same compound?
The IC50 was 5.87 µM.

What about the IC50 ([1]; Plasmodium falciparum, 3D7, 8 h, read-out: Mean IC50, late trophozoite activity) of the same compound?
The IC50 was 3.28 µM.

What about the “ABS development by light microscopy” value (Pf ABS parasites) of the same compound?
Its value is “halted at the schizont stage”.

What about the IC50 (sel. Dd2-B2 TKL3T1268R) of the same compound?
Its IC50 is 0.355 µM.

What about the IC50 [2] of the same compound?
The IC50 was 0.09 µM.

And the IC50 (Pf NF54 male gametes; carry-over: gametogenesis induced in the presence of compound, read-out: IC50, male gamete exflagellation)?
The IC50 was 0.141 µM.

What about the IC50 (Pf NF54 male gametes; compound washed out before gamete formation, read-out: IC50, male gamete formation, wash-out) of the same compound?
Its IC50 is greater than 10 µM.

What about the “PKG pull-down by bead-bound compound” value [3] of the same compound?
Its value is “pulled down”.

And the “Parasite recrudescence under continuous exposure” value [4]?
Its value is “did not result in parasite recrudescence”.

What about the “Inhibition of female gamete formation” value (female gamete formation) of the same compound?
Its value is “inhibitors of female gamete formation”.

And the CC50 (in vitro)?
The CC50 was 41.5 µM.
